According to patent US9995734B2, “Human T cell line assay for evaluating the immunologic identity of glatiramer acetate preparations” (Mylan Inc., priority 2013, dated 2018):
Where “and” joins values, the source holds several entries; their conditions need not be identical. Equal entries are not always repeated.

Test system: panel of six GA-specific long-term human T-cell lines (222-2D8, 222-2F12, 165-F3C, 165-F6C, 205-1C4, 205-1F4)
Experiment: GA-specific human T-cell line panel assay (ATP proliferation): GA test lots and altered GA lots compared with Copaxone
Format: cell-based
Conditions: for ATP Proliferation Assay, Mean / Proliferation (ATP assay), Mean: 4 days
Protocol: Proliferation assays, using the panel of six GA-specific long-term human T-cell lines listed in Table 78, were carried out to compare […] GA test lots, GMA/009/14 (GA Lot 009), GMA/010/14 (GA Lot 010), GMA/011/14 (GA Lot 011), GMA/012/14 (GA Lot 012), GMA/013/14 (GA Lot 013), GMA/014/14 (GA Lot 014), GA Lot 016, GMA/017/14 (GA Lot 017), GMA/018/14 (GA Lot 018), and GMA/070/14 (GA Lot 070), manufactured using standard methods, to a Copaxone reference lot.
Each T-cell line was restimulated using methods described above, using five concentrations of the reference antigen (0.5, 1, 2, 2.5, and 5 μg/ml Copaxone), the same five concentrations of test antigen (the nine GA test lots), and a no antigen control, in the presence of 5×10^4 mitomycin-treated autologous B-LCL. Proliferation was measured by ATP assay after 4 days of incubation with antigen, using methods described previously.
The percentages in the last column of each table were calculated as follows: Proliferation response to test antigen minus proliferation response to control (no antigen)÷proliferation response to reference antigen minus proliferation response to control (no antigen)
The panel of six GA-specific human T-cell lines listed in Table 78 above was used to test the immunological identity of altered GA lots to Copaxone.
Proliferation assays using the panel of six GA-specific T-cell lines (Table 77) were carried out, to compare negative GA lots 051F, 054F, 055F, 057F, 058F, 059F, and 060F (test lots), to Copaxone (reference lot). Each cell line was restimulated using 5 concentrations of reference antigen (Copaxone) and test antigen (the negative GA lots), including a no antigen control (in the presence of 5×10^4 mitomycin-treated autologous B-LCL). Proliferation was measured by ATP assay after 4 days of incubation with antigen, using methods described previously.
The percentages in the last column of each table were calculated as follows: Proliferation response to test antigen minus proliferation response to control (no antigen)÷proliferation response to reference antigen minus proliferation response to control (no antigen).

Substance: glatiramer acetate [COP]
- ATP Proliferation Assay, Mean (T-cell line 165-F3C, 0.5 μg/mL): 4,783
- ATP Proliferation Assay, Mean (T-cell line 165-F3C, 1 μg/mL): 22,290
- ATP Proliferation Assay, Mean (T-cell line 165-F3C, 2 μg/mL): 53,771
- ATP Proliferation Assay, Mean (T-cell line 165-F3C, 2.5 μg/mL): 54,539
- ATP Proliferation Assay, Mean (T-cell line 165-F3C, 5 μg/mL): 58,110
- ATP Proliferation Assay, Mean (T-cell line 165-F6C, 0.5 μg/mL): 3,328
- ATP Proliferation Assay, Mean (T-cell line 165-F6C, 1 μg/mL): 4,620
- ATP Proliferation Assay, Mean (T-cell line 165-F6C, 2 μg/mL): 13,255
- ATP Proliferation Assay, Mean (T-cell line 165-F6C, 2.5 μg/mL): 18,726
- Mean, ATP proliferation assay (T-cell line 165-F6C, 5 μg/mL): 34,012 and 34,995 and 56,466 and 56,465 and 42,493 and 41,233 and 36,303
- ATP Proliferation Assay, Mean (T-cell line 165-F6C, 5 μg/mL): 38,653
- ATP Proliferation Assay, Mean (T-cell line 205-1C4, 0.5 μg/mL): 932
- ATP Proliferation Assay, Mean (T-cell line 205-1C4, 1 μg/mL): 2,481
- ATP Proliferation Assay, Mean (T-cell line 205-1C4, 2 μg/mL): 9,432
- ATP Proliferation Assay, Mean (T-cell line 205-1C4, 2.5 μg/mL): 13,744
- ATP Proliferation Assay, Mean (T-cell line 205-1C4, 5 μg/mL): 45,451
- ATP Proliferation Assay, Mean (T-cell line 205-1F4, 0.5 μg/mL): 548
- ATP Proliferation Assay, Mean (T-cell line 205-1F4, 1 μg/mL): 1,906
- ATP Proliferation Assay, Mean (T-cell line 205-1F4, 2 μg/mL): 9,959
- ATP Proliferation Assay, Mean (T-cell line 205-1F4, 2.5 μg/mL): 13,589
- ATP Proliferation Assay, Mean (T-cell line 205-1F4, 5 μg/mL): 18,491
- ATP Proliferation Assay, Mean (T-cell line 222-2D8, 0.5 μg/mL): 5,873
- ATP Proliferation Assay, Mean (T-cell line 222-2D8, 1 μg/mL): 14,017
- ATP Proliferation Assay, Mean (T-cell line 222-2D8, 2 μg/mL): 90,328
- ATP Proliferation Assay, Mean (T-cell line 222-2D8, 2.5 μg/mL): 129,878
- ATP Proliferation Assay, Mean (T-cell line 222-2D8, 5 μg/mL): 171,116
- ATP Proliferation Assay, Mean (T-cell line 222-2F12, 0.5 μg/mL): 10,879
- ATP Proliferation Assay, Mean (T-cell line 222-2F12, 1 μg/mL): 27,042
- ATP Proliferation Assay, Mean (T-cell line 222-2F12, 2 μg/mL): 105,024
- ATP Proliferation Assay, Mean (T-cell line 222-2F12, 2.5 μg/mL): 115,241
- ATP Proliferation Assay, Mean (T-cell line 222-2F12, 5 μg/mL): 129,291
- Proliferation (ATP assay), Mean (Table 95, T-cell line 165-F3C, GA conc. 0.5 μg/mL): 3,154
- Proliferation (ATP assay), Mean (Table 95, T-cell line 165-F3C, GA conc. 1 μg/mL): 9,050
- Proliferation (ATP assay), Mean (Table 95, T-cell line 165-F3C, GA conc. 2 μg/mL): 27,693
- Proliferation (ATP assay), Mean (Table 95, T-cell line 165-F3C, GA conc. 2.5 μg/mL): 28,018
- Proliferation (ATP assay), Mean (Table 95, T-cell line 165-F3C, GA conc. 5 μg/mL): 32,151
- Proliferation (ATP assay), Mean (Table 95, T-cell line 165-F6C, GA conc. 0.5 μg/mL): 863
- Proliferation (ATP assay), Mean (Table 95, T-cell line 165-F6C, GA conc. 1 μg/mL): 1,838
- Proliferation (ATP assay), Mean (Table 95, T-cell line 165-F6C, GA conc. 2 μg/mL): 8,163
- Proliferation (ATP assay), Mean (Table 95, T-cell line 165-F6C, GA conc. 2.5 μg/mL): 11,665
- Proliferation (ATP assay), Mean (Table 95, T-cell line 165-F6C, GA conc. 5 μg/mL): 30,422
- Proliferation (ATP assay), Mean (Table 95, T-cell line 205-1C4, GA conc. 0.5 μg/mL): 13,267
- Proliferation (ATP assay), Mean (Table 95, T-cell line 205-1C4, GA conc. 1 μg/mL): 26,848
- Proliferation (ATP assay), Mean (Table 95, T-cell line 205-1C4, GA conc. 2 μg/mL): 142,528
- Proliferation (ATP assay), Mean (Table 95, T-cell line 205-1C4, GA conc. 2.5 μg/mL): 159,785
- Proliferation (ATP assay), Mean (Table 95, T-cell line 205-1C4, GA conc. 5 μg/mL): 171,452
- Proliferation (ATP assay), Mean (Table 95, T-cell line 205-1F4, GA conc. 0.5 μg/mL): 6,984
- Proliferation (ATP assay), Mean (Table 95, T-cell line 205-1F4, GA conc. 1 μg/mL): 15,174
- Proliferation (ATP assay), Mean (Table 95, T-cell line 205-1F4, GA conc. 2 μg/mL): 46,598
- Proliferation (ATP assay), Mean (Table 95, T-cell line 205-1F4, GA conc. 2.5 μg/mL): 51,372
- Proliferation (ATP assay), Mean (Table 95, T-cell line 205-1F4, GA conc. 5 μg/mL): 61,252
- Proliferation (ATP assay), Mean (Table 95, T-cell line 222-2D8, GA conc. 0.5 μg/mL): 13,958
- Proliferation (ATP assay), Mean (Table 95, T-cell line 222-2D8, GA conc. 1 μg/mL): 87,807
- Proliferation (ATP assay), Mean (Table 95, T-cell line 222-2D8, GA conc. 2 μg/mL): 142,231
- Proliferation (ATP assay), Mean (Table 95, T-cell line 222-2D8, GA conc. 2.5 μg/mL): 140,804
- Proliferation (ATP assay), Mean (Table 95, T-cell line 222-2D8, GA conc. 5 μg/mL): 147,182
- Proliferation (ATP assay), Mean (Table 95, T-cell line 222-2F12, GA conc. 0.5 μg/mL): 3,580
- Proliferation (ATP assay), Mean (Table 95, T-cell line 222-2F12, GA conc. 1 μg/mL): 42,304
- Proliferation (ATP assay), Mean (Table 95, T-cell line 222-2F12, GA conc. 2 μg/mL): 108,046
- Proliferation (ATP assay), Mean (Table 95, T-cell line 222-2F12, GA conc. 2.5 μg/mL): 115,182
- Proliferation (ATP assay), Mean (Table 95, T-cell line 222-2F12, GA conc. 5 μg/mL): 123,169
- Proliferation (ATP assay), Mean (Table 96, T-cell line 165-F3C, GA conc. 0.5 μg/mL): 2,577
- Proliferation (ATP assay), Mean (Table 96, T-cell line 165-F3C, GA conc. 1 μg/mL): 5,743
- Proliferation (ATP assay), Mean (Table 96, T-cell line 165-F3C, GA conc. 2 μg/mL): 16,415
- Proliferation (ATP assay), Mean (Table 96, T-cell line 165-F3C, GA conc. 2.5 μg/mL): 20,446
- Proliferation (ATP assay), Mean (Table 96, T-cell line 165-F3C, GA conc. 5 μg/mL): 32,600
- Proliferation (ATP assay), Mean (Table 96, T-cell line 165-F6C, GA conc. 0.5 μg/mL): 2,228
- Proliferation (ATP assay), Mean (Table 96, T-cell line 165-F6C, GA conc. 1 μg/mL): 4,270
- Proliferation (ATP assay), Mean (Table 96, T-cell line 165-F6C, GA conc. 2 μg/mL): 15,430
- Proliferation (ATP assay), Mean (Table 96, T-cell line 165-F6C, GA conc. 2.5 μg/mL): 28,942
- Proliferation (ATP assay), Mean (Table 96, T-cell line 165-F6C, GA conc. 5 μg/mL): 45,836
- Proliferation (ATP assay), Mean (Table 96, T-cell line 205-1C4, GA conc. 0.5 μg/mL): 11,790
- Proliferation (ATP assay), Mean (Table 96, T-cell line 205-1C4, GA conc. 1 μg/mL): 26,004
- Proliferation (ATP assay), Mean (Table 96, T-cell line 205-1C4, GA conc. 2 μg/mL): 102,672
- Proliferation (ATP assay), Mean (Table 96, T-cell line 205-1C4, GA conc. 2.5 μg/mL): 124,300
- Proliferation (ATP assay), Mean (Table 96, T-cell line 205-1C4, GA conc. 5 μg/mL): 129,908
- Proliferation (ATP assay), Mean (Table 96, T-cell line 205-1F4, GA conc. 0.5 μg/mL): 8,158
- Proliferation (ATP assay), Mean (Table 96, T-cell line 205-1F4, GA conc. 1 μg/mL): 17,491
- Proliferation (ATP assay), Mean (Table 96, T-cell line 205-1F4, GA conc. 2 μg/mL): 51,613
- Proliferation (ATP assay), Mean (Table 96, T-cell line 205-1F4, GA conc. 2.5 μg/mL): 60,244
- Proliferation (ATP assay), Mean (Table 96, T-cell line 205-1F4, GA conc. 5 μg/mL): 54,345
- Proliferation (ATP assay), Mean (Table 96, T-cell line 222-2D8, GA conc. 0.5 μg/mL): 2,785
- Proliferation (ATP assay), Mean (Table 96, T-cell line 222-2D8, GA conc. 1 μg/mL): 28,970
- Proliferation (ATP assay), Mean (Table 96, T-cell line 222-2D8, GA conc. 2 μg/mL): 76,089
- Proliferation (ATP assay), Mean (Table 96, T-cell line 222-2D8, GA conc. 2.5 μg/mL): 90,666
- Proliferation (ATP assay), Mean (Table 96, T-cell line 222-2D8, GA conc. 5 μg/mL): 99,491
- Proliferation (ATP assay), Mean (Table 96, T-cell line 222-2F12, GA conc. 0.5 μg/mL): 2,404
- Proliferation (ATP assay), Mean (Table 96, T-cell line 222-2F12, GA conc. 1 μg/mL): 11,359
- Proliferation (ATP assay), Mean (Table 96, T-cell line 222-2F12, GA conc. 2 μg/mL): 78,880
- Proliferation (ATP assay), Mean (Table 96, T-cell line 222-2F12, GA conc. 2.5 μg/mL): 95,825
- Proliferation (ATP assay), Mean (Table 96, T-cell line 222-2F12, GA conc. 5 μg/mL): 107,930
